Experimental data: patent US7737182B2, “Pharmaceuticals for xerosis” (Taisho Pharmaceutical Co., Ltd., priority 2001, dated 2010)

Assays:
[1] = tested on: NC/Nga mice manifesting atopic dermatitis; experiment: Spontaneous itch-evoked scratching behavior of NC mice (Test Example 1); type: in vivo
Experimental: About 20-week old NC/Nga mice each weighing about 30 g and manifesting atopic dermatitis were purchased from SLC and subjected to the following experiment. A magnet was buried in both hind paws of each mouse and by detecting its magnetism, the movement of the paws was measured with an itch measuring system (product of Neuroscience; when the mouse makes an action, the magnets move accordingly and a current flows through the coil; the moving magnets cause a change in the current, which is detected, measured and analyzed). Among the scratching actions, those lasting 1.5 seconds or longer were considered itch-evoked and their number was counted continuously. […] The subsequent 24-hr itch-evoked scratching behavior was measured and the number of itch-evoked scratchings after drug administration was compared with the initial count. The experimental data was processed to calculate the percent itch suppression on the basis of the total 24-hr itch-evoked scratching counts before and after drug application. For significance testing, the itch-evoked scratching counts that were obtained before and after drug application from individual animals in each group treated with a specific concentration of drug were processed by a paired t-test. Percent itch suppression (%)=(itch-evoked scratching count before drug application−itch-evoked scratching count after drug application)×100/itch-evoked scratching count before drug application (Results)

[2] = tested on: Fifty-week-old BALB/c male mice; experiment: Aged mouse skin's barrier function, treatment test, TEWL (Test Example 7); type: in vivo; conditions: 50-week-old mice; 0.0001% in ethanol, 200 μL, once a day for 3 days
Experimental: Fifty-week-old BALB/c male mice (eight in each group) were shaven in a rostral dorsolateral area of 4 cm^2 (2 cm×2 cm) with electric clippers. Starting on the next day, a solvent (ethanol, 200 μL) or a drug dissolved in the solvent (compound No. 7 or PGD2, each being at 0.0001% in an amount of 200 μL) was applied to the shaven site for 3 days on once-a-day basis.
On the day next to the third application of the solvent or drug, TEWL at the same site was measured with Tewameter (TM210 of Courage & Khazawa, Germany) to evaluate the drug's action.

BALB/c male mice = experiment: Mouse skin's barrier function, preventive test, TEWL (Test Example 6); type: in vivo; conditions: cohabitation with dermatitic NC/Nga mice; 0.01% in ethanol, 100 μL, once a day for 7 days
Experimental: Six-week-old BALB/c male mice in groups of six were shaven in a rostral dorsolateral area of 4 cm^2 (2 cm×2 cm) with electric clippers and kept in the same cage as NC/Nga mice that had developed dermatitis. From the day next to the start of cohabitation, a solvent (ethanol, 100 μL) or a drug dissolved in the solvent (compound No. 7, PGD2, PGF2α, or PGE1, all being at 0.01% in an amount of 100 μL) was applied to the shaven site for 7 days on once-a-day basis.
On the day next to the seventh application of the solvent or drug, the transepidermal water loss (TEWL) at the same site was measured with Tewameter (TM210 of Courage & Khazawa, Germany) to evaluate the drug's action, with the solvent-applied group being used as the control group.

prostaglandin D receptor = molecular target: T1, prostaglandin D receptor (Homo sapiens, UniProt Q13258); experiment: Antagonism by BW A868C of the suppression of ADP-induced human platelet aggregation; type: cell-based; conditions: final concentration 95.7 nmol/L, human PRP, ADP 3 μmol/L
T1 construct: separate the supernatant (PRP, or platelet-rich plasma); endogenous in cells; host or cells: human platelets (platelet-rich plasma from healthy male donors)
T1 sequence (Q13258 1-359): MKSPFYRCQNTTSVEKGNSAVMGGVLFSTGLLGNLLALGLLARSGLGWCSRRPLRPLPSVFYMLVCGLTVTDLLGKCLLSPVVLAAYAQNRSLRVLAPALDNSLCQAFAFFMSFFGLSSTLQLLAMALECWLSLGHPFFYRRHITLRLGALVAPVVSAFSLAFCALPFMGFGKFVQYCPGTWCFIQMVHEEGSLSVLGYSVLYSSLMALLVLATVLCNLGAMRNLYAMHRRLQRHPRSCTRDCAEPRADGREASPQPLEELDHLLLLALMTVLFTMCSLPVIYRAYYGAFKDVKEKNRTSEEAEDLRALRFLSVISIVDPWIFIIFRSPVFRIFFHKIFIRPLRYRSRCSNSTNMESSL
Experimental: The prostaglandin D receptor selective antagonist used in the test was ((+/−)-3-benzyl-5-(6-carboxyhexyl)-1-(2-cyclohexyl-2-hydroxyethylamino)-hydantoin) (hereunder designated BW A868C) (Sigma-Aldrich Japan K.K.)
BW A868C was diluted with ethanol to final concentrations of 0.03 μmol/L, 0.1 μmol/L, 0.3 μmol/L, 1 μmol/L, 3 μmol/L and 10 μmol/L.
Compound No. 7 and PGD2 were diluted with ethanol to 287 nmol/L and 300 nmol/L, respectively, for subsequent use.
Blood was taken from the cubital veins of human healthy males and sampled into a tube containing 3.13% sodium citrate. The blood sample was centrifuged at 1,000 rpm for 10 minutes at 20° C. to separate the supernatant (PRP, or platelet-rich plasma) and the residue was further centrifuged at 3,000 rpm for 10 minutes at 20° C. to separate the supernatant (PPP, or platelet-poor plasma). The platelet count of PRP was appropriately diluted with PPP to 30×10^4 platelets/μL for subsequent use.
Platelet aggregation was measured with a platelet aggregation measuring instrument (PAM-8C; MC MEDICAL Co., LTD.) by the Born method (Nature, vol. 194, p. 927, 1962). A portion (273 μL) of PRP (for the BW A868C groups, 1 μL of BW A868C was added at varying concentrations) was preincubated at 37° C. for 3 minutes with stirring at 1,000 rpm. After the preincubation, 1 μL of ethanol or a test substance (compound No. 7: final concentration at 95.7 nmol/L; PGD2: final concentration at 1000 nmol/L) was added and the mixture was incubated at 37° C. for 3 minutes with stirring at 1000 rpm. After the incubation, 25 μL of ADP (final concentration at 3 μmol/L) was added to induce platelet aggregation and a maximum percent aggregation for 5 minutes was measured.

In the case of `O=C(O)CSCCCC[C@@H]1[C@@H](C#C[C@@H](O)C2CCCCC2)[C@H](O)C[C@H]1Cl` [Compound No. 7], the “Inhibition rate (%) (percent itch suppression)” value ([1]; concentration 0.000001% in 100% ethanol, 0.2 ml/mouse on dorsal skin, 24-hr scratching counts before vs after) is reported as 43.26%, the “Efficacy (significance, paired t-test)” value ([1]; concentration 0.000001%, scratching counts before vs after application) is reported as “** (**: P < 0.01)” and the “transepidermal water loss (TEWL) compared to the control group” value [2] is reported as “significant decrease in TEWL”. For the same molecule, the “transepidermal water loss (TEWL) compared to the control group” value (BALB/c male mice) was “significant decrease in TEWL” and the “platelet aggregation suppressing action compared with control group (ethanol)” value (prostaglandin D receptor) was “significant platelet aggregation suppressing action”.
